Data taken from patent US4158052A, “Oil-free adjuvant compositions containing N-acetyl-muramyl-L-alanyl-D-isoglutamine” (priority 1975, dated 1979).
Entries after “also recorded” stand apart in the source; their conditions may differ.

Columns and labels:
Swiss common stock mice = assay: Toxicity: lethal dose in mice, intravenous injection; format: in vivo; details: 300 μg, adrenalectomised mice
Experimental: The compound according to the invention has been compared with the lipopolysaccharide (LPS) prepared by the phenol-water procedure from S.enteriditis, with regard to their lethal doses (LD).
The method used to carry out these experiments is described by Chedid and al. in Ann. N.Y. Acad. Sci. 133:712, 1966. The tests are made on two month old Swiss common stock mice. The assayed products are administered by intravenous injections.
The compound according to the invention has been compared with the lipopolysaccharide (LPS) prepared by the phenol-water procedure from S.enteriditis with regard to their lethal dose (LD).
The method used to carry out these experiments is described by Chedid and al. in Ann. N.Y. Acad. Sci. 135:712, 1966. The tests are made on two month old Swiss common stock mice. The assayed products are administered by intravenous injection.

mice [1] = assay: Adjuvanticity in aqueous solution: antibody levels in mice after BSA plus adjuvant in saline (PHA, ABC); format: in vivo; details: for antibody ABC Day 14 / antibody ABC Day 28 / antibody PHA Day 14 / antibody PHA Day 28: primary response; for antibody ABC Day 34 / antibody ABC Day 36 / antibody PHA Day 34 / antibody PHA Day 36: secondary response (BSA recall day 30); for adjuvanticity in aqueous solution (antibody titer), in words: administered in saline with BSA, mice
Experimental: In these experiments, the antibody levels in mice are determined following the injection of various compositions. The injected compositions contain bovine serum albumin (BSA) as antigen and the adjuvant compound according to the invention. The mice used as controls received the BSA and lipopolysaccharides. The compositions are injected in solution in saline. The injected dose of BSA is 0.5 mg per mouse, the recall dose (30 days after the first injection) contains 0.1 mg of BSA. Each tested composition is administered to eight mice. At various time intervals following the injection, the mice are bled to check the antibody level.
The antibody estimation is made either by passive hemagglutination (PHA) using formalinized sheep red blood cells coated with the tested antigen, or according to the method taught by A. A. Hirata and M. W. Brandiss (J. Immunol., 100, 641-648, 1968), or by the so-called antigen binding capacity method as described by P. Minden and S. Farr (Handbook of Exp. Immunol., p. 463, Weir D. M. ed. Blackwell Scientific Pub., Oxford and Edinburgh, 1967). […]
The antibody estimation is made either by passive hemagglutination (PHA) using formalinized sheep red blood cells coated with the tested antigen, or according to method taught by A. A. Hirata and M. W. Brandiss (J. Immunol., 100, 641-648, 1968), or by the so-called antigen binding capacity method described by P. Minden and S. Farr (Handbook of Exp. Immunol., p. 463, Weir D. M. ed. Blackwell Scientific Pub., Oxford and Edinburgh, 1967).

Hartley's guinea pigs = assay: Adjuvanticity with a water in oil emulsion (comparative assay), ovalbumin antigen; format: in vivo; details: 50 μg compound with FIA + ovalbumin
Experimental: As previously, the adjuvanticity is estimated from the increase of the antibody level following an antigen injection. In these experiments, ovalbumin is used as antigen. Assays are carried out on Hartley's guinea pigs weighing 350 g. The animals are injected with 0.1 ml in each posterior footpad. Each dose contains 1 mg ovalbumin and either the Freund's complete adjuvant (FCA) or the Freund's incomplete adjuvant (FIA) or this one with the compound of the invention (50 μg). The antibody titer is estimated 21 days after the injection, by passive hemagglutination as indicated above, or by precipitation according to Folin's method.
A skin test for delayed hypersensitivity is made 18 days after the injection on the same animals. They received 5 μg of ovalbumin by intradermal injection. 48 hours later, the diameter of reaction is measured (in mm).

Hartley guinea pigs = details: for immunogenicity, in words: conclusion from skin tests in guinea pigs; for hypersensitivity reaction, in words: guinea pigs treated with FIA + compound
Experimental: For comparison, simultaneous tests were carried out with Freund's complete adjuvant (FCA).
Hartley guinea pigs weighing 350 g are skin-tested. […] Forty-eight hours after this second injection, the diameter of reaction is measured (in mm).
The estimation is made as previously described.

mice [2] = assay: Reaction to influenza virus: adjuvanticity with influenza vaccine (hemagglutination inhibition); format: in vivo; details: vaccine + adjuvant compound versus vaccine only, vaccine recall after 30 days
Experimental: The adjuvanticity of the Mur-NAc-L-Ala-D-Glu-α-NH2 has been studied against the influenza vaccine on mice. The tested animals are injected with the vaccine and the adjuvant compound whereas controls only received the vaccine. Thirty days later, a recall containing only the vaccine is injected.
It is to be observed that the antibody level is much higher in animals which have received both vaccine and adjuvant compound than in controls. (The measure is made by hemagglutination inhibition following the method proposed by the World Health Organisation Comitee (1953).)

[3] = 100 μg per mouse + BSA in saline
[4] = 30 μg per mouse + BSA in saline
[5] = 300 μg per mouse + BSA in saline

SMILES | survival after injection (Swiss common stock mice) | antibody ABC Day 14 (mice [1]; [3]) | antibody ABC Day 28 (mice [1]; [3]) | antibody PHA Day 14 (mice [1]; [3]) | antibody PHA Day 28 (mice [1]; [3]) | antibody ABC Day 34 (mice [1]; [3]) | antibody ABC Day 36 (mice [1]; [3]) | antibody PHA Day 34 (mice [1]; [3]) | antibody PHA Day 36 (mice [1]; [3]) | adjuvanticity in aqueous solution (antibody titer), in words (mice [1]) | immunogenicity, in words (Hartley guinea pigs) | hypersensitivity reaction, in words (Hartley guinea pigs) | other results
CC(=O)N[C@H]1C(O)O[C@H](CO)[C@@H](O)[C@@H]1O[C@H](C)C(=O)N[C@@H](C)C(=O)N[C@H](CCC(=O)O)C(=O)O (stereo partly drawn) [Mur-NAc-L-Ala-D-Glu(OH), 2-(2-acetamido-2-deoxy-3-O-D-glucopyranosyl)-D-propionyl-L-alanyl-D-glutamic acid] | All mice survived | < 20 | 80 | 3 | 50 | 320 | 630 | 400 | 2,130 | induces an enhancement of the antibody titer | not immunogenic | no hypersensitivity reaction is observed | antibody titer against ovalbumin, in words (Hartley's guinea pigs): does not induce an increase of the antibody titer; skin test reaction to ovalbumin (delayed hypersensitivity), in words (Hartley's guinea pigs; compared with FCA): light
CC(=O)N[C@@H]1[C@@H](O[C@H](C)C(=O)N[C@@H](C)C(=O)N[C@H](CCC(=O)O)C(N)=O)[C@H](O)[C@@H](CO)O[C@H]1O [Mur-NAc-L-Ala-D-Glu-α-NH2, 2-(2-acetamido-2-deoxy-3-O-D-glucopyranosyl)-D-propionyl-L-alanyl-D-α-isoglutamine] | All the mice survived | < 20 | 82 | < 3 | 25 | 270 | 520 | 400 | 2150 | induces an enhancement of the antibody titer that can be compared with the one caused by injecting the LPS; also recorded: high antibody titers were observed | not immunogenic | no hypersensitivity reaction is observed | antibody ABC Day 14 (mice [1]; [4]): < 20; antibody ABC Day 28 (mice [1]; [4]): 75; antibody PHA Day 14 (mice [1]; [4]): 3; antibody PHA Day 28 (mice [1]; [4]): 25; antibody ABC Day 34 (mice [1]; [4]): 210; antibody ABC Day 36 (mice [1]; [4]): 400; antibody PHA Day 34 (mice [1]; [4]): 200; antibody PHA Day 36 (mice [1]; [4]): 800; antibody ABC Day 14 (mice [1]; [5]): < 20; antibody ABC Day 28 (mice [1]; [5]): 50; antibody PHA Day 14 (mice [1]; [5]): < 3; antibody PHA Day 28 (mice [1]; [5]): 25; antibody ABC Day 34 (mice [1]; [5]): 230; antibody ABC Day 36 (mice [1]; [5]): 550; antibody PHA Day 34 (mice [1]; [5]): 200; antibody PHA Day 36 (mice [1]; [5]): 975; antibody level against influenza vaccine (hemagglutination inhibition), in words (mice [2]): much higher
